# Test results as given in patent US8440640B2, “Methods and compositions for treating obesity and related disorders” (University of Medicine and Dentistry of New Jersey, priority 2008, dated 2013).
# “Also recorded” adds a separate entry of the source. Read-outs that look alike come from different tables or passages of the source.
# Legend:
# [1] = occur in roughly half of administered patients; cited from earlier work
# [2] = molecular target: AC5 (UniProt P30803); test: Inhibition of recombinant AC5 (baculovirus overexpression system); format: biochemical; parameters: IC50 AC5
# From the text: (§2) Several drugs with the adenine-like structure for AC5 inhibitors were screened using recombinant proteins of several AC subtypes with a baculovirus overexpression system.
# [3] = molecular target: T1, AC3 (Rattus norvegicus, UniProt P21932); test: Inhibition of recombinant AC3 (baculovirus overexpression system); format: biochemical; conditions: for inhibition of AC3: in the presence of Gs-α/GTPαS/forskolin
# T1 construct: made in house; host or cells: insect cells (baculovirus)
# T1 sequence (P21932 1-1144): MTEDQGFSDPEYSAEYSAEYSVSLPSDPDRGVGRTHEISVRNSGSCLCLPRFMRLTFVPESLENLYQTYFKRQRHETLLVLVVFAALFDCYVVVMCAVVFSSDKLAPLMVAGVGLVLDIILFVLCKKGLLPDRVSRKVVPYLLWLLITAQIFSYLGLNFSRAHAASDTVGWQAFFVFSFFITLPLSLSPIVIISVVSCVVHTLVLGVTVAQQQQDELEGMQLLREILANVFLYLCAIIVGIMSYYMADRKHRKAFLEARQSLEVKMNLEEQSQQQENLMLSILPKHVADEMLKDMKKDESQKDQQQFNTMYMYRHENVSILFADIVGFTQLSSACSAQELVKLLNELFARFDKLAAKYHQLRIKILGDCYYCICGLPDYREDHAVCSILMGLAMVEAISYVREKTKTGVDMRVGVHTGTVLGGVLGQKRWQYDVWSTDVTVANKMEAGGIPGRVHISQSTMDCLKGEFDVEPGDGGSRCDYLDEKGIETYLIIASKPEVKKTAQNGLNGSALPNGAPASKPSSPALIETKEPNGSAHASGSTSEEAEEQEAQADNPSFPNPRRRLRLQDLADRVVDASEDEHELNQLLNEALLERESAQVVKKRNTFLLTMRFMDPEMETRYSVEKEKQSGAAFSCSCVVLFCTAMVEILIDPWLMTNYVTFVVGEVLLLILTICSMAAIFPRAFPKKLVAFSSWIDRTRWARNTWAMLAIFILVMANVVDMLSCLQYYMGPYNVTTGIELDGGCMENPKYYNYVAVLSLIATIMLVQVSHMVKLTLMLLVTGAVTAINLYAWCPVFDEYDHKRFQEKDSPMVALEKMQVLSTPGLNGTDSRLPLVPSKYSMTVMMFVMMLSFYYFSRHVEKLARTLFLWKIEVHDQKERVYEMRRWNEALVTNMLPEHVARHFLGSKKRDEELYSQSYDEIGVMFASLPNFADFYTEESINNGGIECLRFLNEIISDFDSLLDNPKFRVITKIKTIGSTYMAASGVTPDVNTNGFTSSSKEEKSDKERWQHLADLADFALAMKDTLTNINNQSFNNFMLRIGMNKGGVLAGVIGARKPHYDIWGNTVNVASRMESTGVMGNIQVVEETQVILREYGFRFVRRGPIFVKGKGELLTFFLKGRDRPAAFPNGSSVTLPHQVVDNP
# From the text: as §2
# [4] = test system: AC5; test: Forskolin-stimulated 32P-cAMP production in heart membranes from AC5 Tg mice; format: biochemical, mouse; parameters: dose or concentration left out as unconfirmed; conditions: n=4
# Description: To measure AC5 inhibition, in addition to membrane preparations from mouse heart, membrane preparations from mouse striatum were used because AC5 provides about 80% of total AC activity in the striatum, mimicking purified AC5. cAMP was measured with 50 mM forskolin (FSK) in the presence or absence of 10 mM of the indicated drugs).
# [5] = test system: AC6; test: Forskolin-stimulated 32P-cAMP production in heart membranes from AC6 Tg mice; format: biochemical, mouse; conditions: forskolin 50 mM, n=4
# Description: (§1) Hearts were dissected from the mice and membrane preparations were prepared as described previously. Protein concentration was measured by the method of Bradford using bovine serum albumin as a standard. AC activity was measured as described previously. AC activity was linear within the incubation time up to 30 min. In order to harvest hearts for tissue cAMP content measurements, mice were allowed to acclimate to the surroundings in the laboratory for an hour before sacrifice. Freshly isolated hearts were briefly immersed in liquid nitrogen. The tissue was homogenized in ice-cold 6% percholic acid, and cAMP was extracted as described before. The concentration of cAMP was determined with an RIA kit (PerkinElmer Life Sciences, Boston, Mass., USA).
# [6] = test system: cardiac myocytes; test: ISO-induced cAMP accumulation in cardiac myocytes; format: cell-based, mouse
# From the text: Decreases in cAMP in AC5 KO were observed only at high ISO concentrations. […] (Toya et al., J Mol Cell Cardiol., 1998; 30(1):97-108)
# [7] = test system: cultured cardiac myocytes; test: ISO-induced apoptosis and contraction in cultured cardiac myocytes; format: cell-based
# [8] = test system: AC activity in the heart of dogs; test: Forskolin-induced haemodynamic response in instrumented dog; format: in vivo; conditions: AraAde 15 mg/kg intravenously, forskolin 50 nmol/kg
# From the text: An adult mongrel dog (16.5 kg, male) was surgically instrumented, for measurements of LV pressure (P), LV dP/dt, aortic pressure, ascending aortic blood flow (stroke volume) and mean aortic blood flow (cardiac output). (a) The response to intravenous infusion of Forskolin (50 nmol/kg) is shown on the phasic waveforms on the left. LV dP/dt, aortic flow (stroke volume) and mean aortic flow (cardiac output) are increased.
# [9] = test system: high-fat-diet-fed C57BL/6 mice; test: High-fat-diet-fed C57BL/6 mice treated with AraAde; format: in vivo, mouse; parameters: insulin resistance, HOMA IR: unit not given here
# [10] = test system: C57Bl/6 mice with chronic ISO infusion; test: Chronic ISO infusion model; format: in vivo, mouse
# From the text: Mice were then subjected to echocardiography (LVEF) (A); and tissue was harvested for pathological examination of myocardial apoptosis (by TUNEL) (B); and fibrosis (by PASR) (C). n=4-9.*p<0.05 vs. all other groups. […] Thus, this AC5 inhibitor is protective against the development of ISO-induced cardiomyopathy.
# [11] = Tolerability of subcutaneous mini-osmotic pump infusion; format: in vivo; conditions: infused subcutaneously, up to 3 months
# [12] = test system: myocardial infarction; test: Survival after myocardial infarction; conditions: in vivo
# [13] = test system: brain function; test: Bradykinesia and locomotor activity; conditions: as observed in AC5 KO
# [14] = molecular target: AC2 (UniProt P26769); test: Inhibition of recombinant AC2 (baculovirus overexpression system); conditions: for IC50: read-out: IC50 AC2, recombinant AC proteins, Table 1; for inhibition of AC2: in the presence of Gs-α/GTPαS/forskolin
# From the text: as §2
# [15] = test system: AC activity in heart membranes; test: ISO-stimulated AC activity in heart membranes of WT and AC5KO mice; format: biochemical, mouse; conditions: 10 μM
# Description: as §1
# cAMP production in membranes from the hearts of AC5KO and WT at 6 months of age was examined. The steady state AC activity was determined as the maximal capacity of cAMP production in the presence of ISO (100 μM ISO+100 μM GTP), GTPγS (100 μM) or forskolin (100 μM). […] Basal cardiac function was not decreased, but the response to ISO and muscarinic inhibition of ISO were attenuated.
# [16] = molecular target: AC5 (UniProt P30803); test: Inhibition of recombinant AC5 (baculovirus overexpression system); format: biochemical; parameters: IC50 for AC5; other: in the presence of Gs-α/GTPαS/forskolin; conditions: in the presence of Gs-α/GTPαS/forskolin
# From the text: as §2
# [17] = test system: AC5; test: as above; format: biochemical; conditions: for Selectivity ratio for AC5, AC5/AC2: ratio of IC50 for AC5 to that for AC2; for Selectivity ratio for AC5, AC5/AC3: ratio of IC50 for AC5 to that for AC3
# From the text: as §2
# [18] = test system: AC5; conditions: cited from earlier work
# [19] = test system: cardiac myocytes; conditions: cited from earlier work
# [20] = test system: AC2; conditions: previously noted; cited from earlier work
# [21] = recombinant AC proteins, Table 1, read-out: IC50 AC3
# [22] = recombinant AC proteins, Table 1, read-out: IC50 AC5
structure (smiles),measurement,setting,value
Nc1nc(F)nc2c1ncn2[C@@H]1O[C@H](CO)[C@@H](O)[C@@H]1O [fludarabine],adverse effects in patients,[1],severe adverse effects including bone marrow suppression
Nc1ncnc2c1ncn2[C@H]1C[C@H](OP(=O)(O)O)[C@@H](CO)O1 [2′-d-3′-AMP],IC50,[2]; read-out: IC50 for AC5,0.82 µM
"Nc1ncnc2c1ncn2[C@@H]1O[C@H](CO)[C@@H](O)[C@@H]1O [AraAde, 9-β-D-arabinofuranosyladenine]",IC50,[3]; [21],375 µM
same,"forskolin induced cAMP production, hearts from AC5 Tg",[4],dramatically decreased
same,"forskolin induced cAMP production, hearts from AC6 Tg",[5],not
same,maximum level of suppression of ISO-induced cAMP accumulation,[6],around 30%
same,ISO induced apoptosis in cultured cardiac myocytes,[7],prevented
same,forskolin-induced LV dP/dt max,[8],attenuated
same,forskolin-induced cardiac output,[8],attenuated
same,plasma insulin level,"[9]; 15 mg/kg/day, high-fat diet",unchanged; also recorded: the elevation in insulin was minimal
same,fasting blood glucose,"[9]; 15 mg/kg/day, high-fat diet, vs vehicle",decreased
same,glucose tolerance,"[9]; 94 days high fat diet, 42 days AraAde",improved
same,"insulin resistance, HOMA IR","[9]; terminal blood after 6-7 hour fast, n=2",6.38
same,ISO-induced cardiac fibrosis (PASR),[10]; AraAde 100 μg/g/day,significantly inhibited
same,ISO-induced myocardial apoptosis (TUNEL),[10]; AraAde 100 μg/g/day,significantly inhibited
same,chronic ISO-induced decreases in LVEF,"[10]; AraAde 20 mg/kg/day for 1 week, echocardiography",inhibited
same,"exercise performance, maximum treadmill speed","[10]; chronic ISO 60 mg/kg/day for 1 week, AraAde 15 mg/kg/day, n=4-6",rescued exercise performance
same,tolerability,[11],well tolerated
same,survival rate after myocardial infarction,[12],increased
same,IC50,[2]; [22],9.8 µM
same,bradykinesia and impaired locomotor activity,[13],does not induce
same,IC50,[14],7200 µM
C[N+](C)(C)CCOC(N)=O [Carbachol],inhibition of ISO-stimulated AC activity in AC5KO,[15]; AC5KO heart membranes,did not inhibit
same,decrease of ISO-stimulated AC activity in WT,[15]; WT heart membranes,21+/−3.4%
"Nc1ncnc2c1ncn2C1CCCC1 [CPA, 9-(cyclopentyl) adenine]",inhibition of AC3,[3],only to a modest degree
same,inhibition of AC5,[16],potently inhibited
same,inhibition of AC2,[14],only to a modest degree
Nc1ncnc2c1ncn2[C@@H]1O[C@H](CO)[C@@H](OP(=O)(O)O)[C@H]1O [3′-AMP],IC50,[2]; read-out: IC50 for AC5,14.6 µM
Nc1ncnc2c1ncn2C1CCC(C(=O)NO)C1 (stereo not drawn) [PMC-6],"Selectivity ratio for AC5, AC5/AC2",[17],0.0049
same,"Selectivity ratio for AC5, AC5/AC3",[17],0.029
same,IC50,[3]; [21],11.1 µM
same,IC50,[2]; [22],0.32 µM
same,IC50,[14],65.3 µM
"Nc1ncc2c(n1)CC(c1ccco1)CC2=O (stereo not drawn) [NKY80, 2-amino-7-(2-furanyl)-7,8-dihydro-5(6H)-quinazoline]",inhibition of purified AC5 protein in vitro,[18],moderate inhibition
same,inhibition of cAMP accumulation in cultured cardiac myocytes,[19],does not inhibit
"C[C@H]1O[C@@H](n2cnc3c(N)ncnc32)C[C@@H]1O [2′5′-dd-Ado, 2′5′ dideoxyadenosine]","Selectivity ratio for AC5, AC5/AC2",[17],0.00067
same,"Selectivity ratio for AC5, AC5/AC3",[17],0.0063
same,IC50,[3],253 µM
same,maximum level of suppression of ISO-induced cAMP accumulation,[6],around 30%
same,ISO induced apoptosis in cultured cardiac myocytes,[7],prevented
same,contraction in cultured cardiac myocytes,[7],without impairing contraction
same,IC50,[2]; [22],1.6 µM
same,IC50,[14],2380 µM
"Nc1ncnc2c1ncn2C1CCCO1 (stereo not drawn) [THFA, 9-(tetrahydro-2-furyl) adenine]",selectivity ratio between AC5 and AC2,[17],130
same,inhibition of AC3,[3],only to a modest degree
same,selectivity ratio between AC6 and AC2,[20],1.8
same,inhibition of AC5,[16],potently inhibited
same,inhibition of AC2,[14],only to a modest degree
